# Measured values as given in publication PMC9247258, “Synthesis and Biological Activity Evaluation of 2-Cyanopyrrole Derivatives as Potential Tyrosinase Inhibitors” (Frontiers in Chemistry, 2022).
# Columns and labels:
# mushroom tyrosinase [1] = target: T1, mushroom tyrosinase (Agaricus bisporus, UniProt C7FF04); assay: Mushroom tyrosinase inhibitory assay (L-DOPA as substrate); assay type: biochemical; parameters: purchased Sigma (St. Louis, MO, United States); settings: for IC50: mushroom tyrosinase, L-DOPA substrate, absorbance 475 nm
# Experimental: The mushroom tyrosinase activity assays of synthetic compounds were carried out according to the previously reported modification ([Qin et al., 2015]). L-DOPA was used as the substrate. Briefly, 800 μl of phosphate buffer (50 mM, pH 6.8), 50 μl of mushroom tyrosinase (666.67 U/ml, dissolved in PBS), and 50 μl of inhibitor (dissolved in DMSO) were placed in the plastic centrifuge tube. Then, 100 μl of L-DOPA (5 mM, dissolved in PBS) was added. Subsequently, its change in absorbance at 475 nm was measured in a time-dependent manner using a Beckman UV-650 spectrophotometer. The percentage inhibition was calculated by using [(OD0 - OD1)/OD0] × 100%, where OD0 was the absorbance without inhibitor, and OD1 was the absorbance with the inhibitor. The IC50 value of the potential compound was calculated from dose-response curves of percentage inhibition. Kojic acid was used as a standard control for comparison. All experiments were performed in duplicate.
# Target sequence in this assay (C7FF04 1-392 limits assumed): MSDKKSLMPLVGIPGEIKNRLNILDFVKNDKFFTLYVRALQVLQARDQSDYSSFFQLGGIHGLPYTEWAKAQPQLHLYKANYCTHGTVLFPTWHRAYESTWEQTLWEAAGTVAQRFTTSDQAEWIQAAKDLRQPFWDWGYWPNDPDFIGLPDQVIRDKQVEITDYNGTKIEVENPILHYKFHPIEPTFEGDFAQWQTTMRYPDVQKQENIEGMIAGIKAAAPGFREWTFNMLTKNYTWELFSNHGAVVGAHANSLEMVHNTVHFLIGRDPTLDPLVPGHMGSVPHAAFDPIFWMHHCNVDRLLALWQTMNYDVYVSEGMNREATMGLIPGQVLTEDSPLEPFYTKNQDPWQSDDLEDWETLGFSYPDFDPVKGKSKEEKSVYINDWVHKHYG
# B16 melanoma cells = assay: MTT assay, cell cytotoxicity; assay type: cell-based, mouse; settings: 24 h treatment, under a concentration of 100 μM
# Experimental: B16 mouse melanoma cells were cultured in Dulbecco’s modified Eagle’s medium (DMEM) containing 10% fetal bovine serum and 1% penicillin/streptomycin at 37°C in a 5% CO2 incubator. B16 cells (100 µl) were plated in a 96-well plate (5 × 10^3 cells/well) for 24 h and then treated with a 100 µl complete medium containing A12 or kojic acid for 24 h. MTT solution (0.5 mg/ml, final concentration) was added to each well, and plates were incubated at 37°C for another 3 h. The absorbance was measured at 490 nm using a multi-detection microplate reader.
# [2] = system: tyrosinase in B16 melanoma cells; assay: Cellular tyrosinase activity; assay type: cell-based; settings: Mus musculus, 48 h incubation
# Experimental: B16 mouse melanoma cells were cultured in Dulbecco’s modified Eagle’s medium (DMEM) containing 10% fetal bovine serum and 1% penicillin/streptomycin at 37°C in a 5% CO2 incubator. The inhibitory activity of A12 on tyrosinase in B16 cells was evaluated. B16 cells (5 × 10^4 cells/well) were plated in 96-well plates and incubated for 24 h. A measure of 100 µl of complete medium including A12 or kojic acid was added for further incubation of 48 h. Then, cells were added to 50 µl Triton X-100 (1%) and allowed for freezing for 1 h at −80°C. After thawing at room temperature, 10 μl L-DOPA solutions (0.1%, w/v) were added and co-incubated for 1 h at 37°C. The absorbance at 405 nm was measured.
# mushroom tyrosinase [3] = target: T1, mushroom tyrosinase; assay: Inhibition mechanism and kinetic analysis (v vs [E] plots, Lineweaver-Burk plot); assay type: biochemical
# Experimental: Experiments were performed to analyze the inhibitory mechanism by the following method. For the text, the mushroom tyrosinase at a final concentration of 16.67–100.00 U/ml and L-DOPA at a final concentration of 0.5 mM were chosen. Then, the mushroom tyrosinase activity was measured in the presence of the inhibitor.
# The inhibition type of the inhibitor on mushroom tyrosinase was evaluated by the Lineweaver–Burk plot, and the inhibition constants were obtained from the second plots of the apparent 1/Vmax and Km/Vmax against the inhibitor concentration. In this assay, mushroom tyrosinase at a final concentration of 33.33 U/ml and L-DOPA at a final concentration of 0.25–2 mM were used. The equation for the Lineweaver–Burk plot can be written as follows: 1/v−Km/Vm(1+[I]/KI)+1/Vm(1+[I]/KIS) where v is the reaction velocity, Km is the Michaelis constant, Vm is the maximal velocity, [I] is the concentration of the inhibitor, [S] is the concentration of the substrate, KI is the constant for the inhibitor binding with the free enzyme, and KIS is the constant for the inhibitor binding with the enzyme-substrate complex. KI and KIS were obtained from the slope or the vertical intercept vs. the inhibitor concentration, respectively.
# Target sequence in this assay (C7FF04 2-392): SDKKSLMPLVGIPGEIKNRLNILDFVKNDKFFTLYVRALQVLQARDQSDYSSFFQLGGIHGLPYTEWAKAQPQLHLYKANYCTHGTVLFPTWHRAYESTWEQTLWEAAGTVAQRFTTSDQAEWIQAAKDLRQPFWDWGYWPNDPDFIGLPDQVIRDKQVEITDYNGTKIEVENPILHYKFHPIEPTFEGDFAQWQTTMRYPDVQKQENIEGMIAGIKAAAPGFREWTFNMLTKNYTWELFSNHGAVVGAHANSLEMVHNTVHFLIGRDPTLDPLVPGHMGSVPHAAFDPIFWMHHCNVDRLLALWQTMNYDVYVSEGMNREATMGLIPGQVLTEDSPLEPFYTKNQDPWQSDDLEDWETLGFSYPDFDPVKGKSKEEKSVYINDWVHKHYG
Compound,IC50 (mushroom tyrosinase [1]) [µM],other results
COc1ccc(-c2ccn(C)c2C#N)cc1 [Compound A8],89.2,
Cn1ccc(-c2ccc(Br)cc2)c1C#N [Compound A6],8.17,
COc1ccc(Br)cc1-c1ccn(C)c1C#N [Compound A11],2.11,
Cn1ccc(-c2ccccc2Br)c1C#N [Compound A4],8.47,
"O=c1cc(CO)occ1O [Kojic acid, reference compound]",,cell cytotoxicity on B16 melanoma cells (B16 melanoma cells): no cytotoxicity; inhibition at 100 µM [2]: 39.8%
Cn1ccc(-c2cccc(F)c2)c1C#N [Compound A3],21.4,
Cn1ccc(-c2cccc(Cl)c2Cl)c1C#N [Compound A10],4.83,
COc1ccccc1-c1ccn(C)c1C#N [Compound A7],23.6,
Cn1c(-c2ccccc2)cc(-c2ccc(Cl)cc2)c1C#N [Compound A15],87.3,
N#Cc1c(-c2ccc(Cl)cc2)ccn1Cc1ccccc1 [Compound A14],80.5,
Cn1ccc(-c2ccccc2)c1C#N [Compound A1],7.42,
CCn1c(C)cc(-c2ccccc2)c1C#N [Compound A13],4.46,
N#Cc1c(-c2ccc(Cl)cc2)cc2n1Cc1ccccc1C2 [Compound A17],5.57,
Cn1ccc(-c2ccc(C(F)(F)F)cc2)c1C#N [Compound A9],12.4,
Cn1ccc(-c2ccccc2F)c1C#N [Compound A2],8.72,
Cn1ccc(-c2cccc(Br)c2)c1C#N [Compound A5],16.5,
N#Cc1c(-c2ccc(Cl)cc2)cc2n1CCCC2 [Compound A16],5.06,
C=Cc1ccccc1-c1ccn(C)c1C#N [Compound A12],0.97,"inhibition type (mushroom tyrosinase [3]; Lineweaver-Burk double reciprocal plots, L-DOPA 0.25-2 mM, tyrosinase 33.33 U/ml): mixed-type; reversibility of tyrosinase inhibition (mushroom tyrosinase [3]; plots of initial velocity vs tyrosinase concentration, L-DOPA 0.5 mM): reversible; KIS, equilibrium constant for inhibitor binding with enzyme-substrate complex (mushroom tyrosinase [3]; second plot of apparent 1/Vmax vs inhibitor concentration): 1.00 µM; cell cytotoxicity on B16 melanoma cells (B16 melanoma cells): no cytotoxicity; inhibition at 100 µM [2]: 33.5%; times stronger than the reference inhibitor kojic acid (mushroom tyrosinase [1]; ratio of tyrosinase IC50 values, kojic acid vs compound): ~30 times"

# Now from value to compound, other results behind:
IC50 (mushroom tyrosinase [1]) [µM],Compound,other results
> 200,"Cn1ccc(-c2cccc(Br)c2)c1CNC(=O)OC(C)(C)C [Compound B5, tert-Butyl ((3-(3-bromophenyl)-1-methyl-1H-pyrrol-2-yl)methyl)carbamate]",melting point: 124 to 127 °C
> 200,"Cn1ccc(-c2ccccc2)c1CNC(=O)OC(C)(C)C [Compound B6, tert-Butyl ((1-methyl-3-phenyl-1H-pyrrol-2-yl)methyl)carbamate]",melting point: 87 to 90 °C
> 200,"Cn1ccc(-c2cccc(F)c2)c1CNC(=O)OC(C)(C)C [Compound B4, tert-Butyl ((3-(3-fluorophenyl)-1-methyl-1H-pyrrol-2-yl)methyl)carbamate]",melting point: 103 to 104 °C
> 200,"Cn1ccc(-c2ccc(C(F)(F)F)cc2)c1CNC(=O)OC(C)(C)C [Compound B7, tert-Butyl ((1-methyl-3-(4-(trifluoromethyl)phenyl)-1H-pyrrol-2-yl)methyl)carbamate]",melting point: 120 to 122 °C
> 200,"Cn1ccc(-c2ccc(Br)cc2)c1C(N)=O [Compound B2, 3-(4-Bromophenyl)-1-methyl-1H-pyrrole-2-carboxamide]",melting point: 172 to 174 °C
> 200,"Cn1ccc(-c2ccccc2F)c1CNC(=O)OC(C)(C)C [Compound B8, tert-Butyl ((3-(2-fluorophenyl)-1-methyl-1H-pyrrol-2-yl)methyl)carbamate]",melting point: 81 to 84 °C
> 200,"Cn1ccc(-c2ccc(Br)cc2)c1CNC(=O)OC(C)(C)C [Compound B3, tert-Butyl ((3-(4-bromophenyl)-1-methyl-1H-pyrrol-2-yl)methyl)carbamate]",melting point: 109 to 113 °C
> 200,"Cn1ccc(-c2cccc(Br)c2)c1C(N)=O [Compound B1, 3-(3-Bromophenyl)-1-methyl-1H-pyrrole-2-carboxamide]",
